Data as given in patent publication US4370489A, “Herbicidal compounds” (Hoechst Aktiengesellschaft, priority 1976, dated 1983).

Tests used:
[1] = test system: Alopecurus; test: Post-emergence greenhouse pot trial, annual blackgrass (Example I, Table I); format: in vivo, annual blackgrass (Alopecurus); conditions: greenhouse pots, 4 weeks
Experimental: (§1) Seeds of weed grasses were sown in pots filled with loamy soil and placed in the greenhouse for germination and emergence. As soon as the plants had developed 3 or 4 leaves, they were sprayed with wettable powder formulations, suspended in water, of compounds according to the invention.
(§2) The results and also the results of all following examples were evaluated 4 weeks later according to the following scheme:
(§3) 4 is still considered an acceptable herbicidal effect in weeds and a satisfactory preserving effect in crop plants (cf. Bolle, Nachrichtenblatt des Deutschen Pflanzenschutzdienstes 16, 1964, pages 92-94).
(§4) Effect on weed grasses in a post-emergence trial in pots
(§5) in the greenhouse (Evaluation scheme)

[2] = test system: Digitaria; test: Post-emergence greenhouse pot trial, Digitaria (Example I, Table I); format: in vivo; conditions: greenhouse pots, 4 weeks
Experimental: as §1, §2, §3, §4, §5

[3] = test system: Echinochloa; test: Post-emergence greenhouse pot trial, Echinochloa (Example I, Table I); format: in vivo; conditions: greenhouse pots, 4 weeks
Experimental: as §1, §2, §3, §4, §5

[4] = test system: Setaria; test: Post-emergence greenhouse pot trial, Setaria (Example I, Table I); format: in vivo; conditions: greenhouse pots, 4 weeks
Experimental: as §1, §2, §3, §4, §5

[5] = test system: Lolium; test: Post-emergence greenhouse pot trial, Lolium (Example I, Table I); format: in vivo; conditions: greenhouse pots, 4 weeks
Experimental: as §1, §2, §3, §4, §5

[6] = test system: weed grasses; test: Pre-emergence greenhouse pot trial, weed grasses overall (Example V); format: in vivo; conditions: in words
Experimental: as §2
In a greenhouse the compounds to be tested were sprayed on the surface of the soil directly after sowing. […] Dicotyledonous crop plants (the same as used in Example I) were not damaged by the applied amounts.
Effect on weed grasses in a pre-emergence process (evalua-
tion scheme) experiment in pots in the greenhouse.

[7] = test system: wild oat; test: Post-emergence trial in the greenhouse, wild oat (Example VII, Table VII); format: in vivo; conditions: 31 kg/hectare, emulsion concentrate, 4 weeks after treatment
Experimental: as §2
In a greenhouse some of the compounds of the invention were sprayed on plants of wild oat, the compounds being used as emulsion concentrates.
(§6) Post-emergence trial in the greenhouse
Effect on wild oat 4 weeks after treatment
Dose 31 kg/hectare of active compound (as emulsion

[8] = test system: barnyard grass; test: Post-emergence trial in the greenhouse, barnyard grass (Example VIII, Table VIII); format: in vivo; conditions: 31 kg/hectare, wettable powder, 4 weeks after treatment, 3 to 4 leaf-stage
Experimental: as §2
In a similar trial some of the compounds of the invention were sprayed in the form of wettable powder formulations on barnyard grass in the 3 to 4 leaf-stage.
as §6
Effect on barnyard grass 4 weeks after treatment
Dose 31 kg/hectare of active compound (as wettable

Compound | Effect on weed grasses (evaluation scheme number), Alopecurus ([1]; 0.15 kg/hectare) | Effect on weed grasses (evaluation scheme number), Alopecurus ([1]; 0.62 kg/hectare) | Effect on weed grasses (evaluation scheme number), Alopecurus ([1]; 2.5 kg/hectare) | Effect on weed grasses (evaluation scheme number), Digitaria ([2]; 0.15 kg/hectare) | Effect on weed grasses (evaluation scheme number), Digitaria ([2]; 0.62 kg/hectare) | Effect on weed grasses (evaluation scheme number), Digitaria ([2]; 2.5 kg/hectare) | Effect on weed grasses (evaluation scheme number), Echinochloa ([3]; 0.15 kg/hectare) | Effect on weed grasses (evaluation scheme number), Echinochloa ([3]; 0.62 kg/hectare) | Effect on weed grasses (evaluation scheme number), Echinochloa ([3]; 2.5 kg/hectare) | Effect on weed grasses (evaluation scheme number), Setaria ([4]; 0.15 kg/hectare) | Effect on weed grasses (evaluation scheme number), Setaria ([4]; 0.62 kg/hectare) | Effect on weed grasses (evaluation scheme number), Setaria ([4]; 2.5 kg/hectare) | Effect on weed grasses (evaluation scheme number), Lolium ([5]; 0.15 kg/hectare) | Effect on weed grasses (evaluation scheme number), Lolium ([5]; 0.62 kg/hectare) | Effect on weed grasses (evaluation scheme number), Lolium ([5]; 2.5 kg/hectare) | effect in pre-emergence treatment compared with comparative compound A [6] | effect (number) on wild oat [7] | effect (number) on barnyard grass [8]
CCOC(=O)C(C)Oc1ccc(Oc2ccc(Br)cc2Cl)cc1 (stereo not drawn) [Compound 1b, 4-(2'-chloro-4'-bromophenoxy)-α-phenoxy-propionic acid ethyl ester] | 6 (75.0 to <85.0) | 1 (100) | 1 (100) | 7 (65.0 to <75.0) | 1 (100) | 1 (100) | 1 (100) | 1 (100) | 1 (100) | 1 (100) | 1 (100) | 1 (100) | 6 (75.0 to <85.0) | 2 (97.5 to <100) | 1 (100) | Analogous results | 1 (100) | 
CC(C)OC(=O)C(C)Oc1ccc(Oc2ccc(Br)cc2Cl)cc1 (stereo not drawn) [Compound 1c, 4-(2'-chloro-4'-bromophenoxy)-α-phenoxy-propionic acid isopropyl ester] | 6 (75.0 to <85.0) | 3 (95.0 to <.97.5) | 1 (100) | 7 (65.0 to <75.0) | 4 (90.0 to <95.0) | 1 (100) | 1 (100) | 1 (100) | 1 (100) | 3 (95.0 to <.97.5) | 1 (100) | 1 (100) | 5 (85.0 to <90.0) | 4 (90.0 to <95.0) | 3 (95.0 to <.97.5) | Analogous results | 1 (100) | 1 (100)
CCCCOC(=O)C(C)Oc1ccc(Oc2ccc(Br)cc2Cl)cc1 (stereo not drawn) [Compound 1d, 4-(2'-chloro-4'-bromophenoxy)-α-phenoxy-propionic acid n-butyl ester] | 3 (95.0 to <.97.5) | 2 (97.5 to <100) | 1 (100) | 6 (75.0 to <85.0) | 1 (100) | 1 (100) | 2 (97.5 to <100) | 1 (100) | 1 (100) | 2 (97.5 to <100) | 1 (100) | 1 (100) | 6 (75.0 to <85.0) | 4 (90.0 to <95.0) | 2 (97.5 to <100) | Analogous results | 1 (100) | 
CC(C)COC(=O)C(C)Oc1ccc(Oc2ccc(Br)cc2Cl)cc1 (stereo not drawn) [Compound 1e, 4-(2'-chloro-4'-bromophenoxy)-α-phenoxy-propionic acid isobutyl ester] |  |  |  |  |  |  |  |  |  |  |  |  |  |  |  |  | 2 (97.5 to <100) | 
CC(Oc1ccc(Oc2ccc(Br)cc2Cl)cc1)C(=O)O (stereo not drawn) [Compound 2b] |  |  |  |  |  |  |  |  |  |  |  |  |  |  |  |  |  | 3 (95.0 to <.97.5)
CC(Oc1ccc(Oc2ccc(Br)cc2Cl)cc1)C(=O)O (stereo not drawn) [Compound 2c] |  |  |  |  |  |  |  |  |  |  |  |  |  |  |  |  |  | 1 (100)
CC(Oc1ccc(Oc2ccc(Br)cc2Cl)cc1)C(=O)O (stereo not drawn) [Compound 2d] |  |  |  |  |  |  |  |  |  |  |  |  |  |  |  |  |  | 1 (100)
CC(Oc1ccc(Oc2ccc(Br)cc2Cl)cc1)C(=O)O (stereo not drawn) [Compound 2e] |  |  |  |  |  |  |  |  |  |  |  |  |  |  |  |  |  | 4 (90.0 to <95.0)
